Read-outs that look alike come from different tables or passages of the source. Where a SMILES comes first, the peptide text is derived from it. The star is where a group is joined. Cbz = O=C(OCc1ccccc1)*; CH2F = FC*
Key:
MCF7/FasR cells = experiment: Cell death with or without pan-caspase inhibitor z-VAD-fmk, MTT; format: cell-based, human; conditions: 10 µM z-VAD-fmk, MCF7/FasR and MCF7/FasR/Bcl-xL, 72 h
Source text: To determine the mechanism of cell death, we used MCF7 cells transfected to express the human Fas receptor (FasR) or doubly transfected to express the human Fas receptor and human Bcl-xL [75]. Since MCF7 cells express the TNF receptor endogenously, this allowed the study of both Fas- and TNFα-mediated apoptosis in the same cell model to assess whether cell death was dependent on the Bcl-2 family of mitochondrial proteins such as Bcl-xL. […] This is consistent with findings that death receptors such as FasR and TNFR can mediate apoptosis through both the extrinsic pathway (mitochondria-independent by directly activating executioner caspases via upstream caspase-8) and the intrinsic (mitochondrial) pathway controlled by the Bcl-2 family of proteins.
We next evaluated the effect of the pan-caspase inhibitor z-VAD-fmk on caspase signaling. As expected, the treatment with z-VAD-fmk rendered MCF7/FasR cells resistant to TNFα-induced PARP and caspase-7 processing (Figure 14A) and to the loss of cell viability (Figure 14B).
A tetrazolium-based MTT reagent (3-(4,5-dimethylthiazol-2-yl)-2,5-diphenyltetrazolium bromide) was used to determine cell viability, as previously described. After 72 h of treatment at 37 °C and 5% CO2, cells were incubated with 25 μL MTT solution (5 mg/mL; Sigma-Aldrich) for 4 h. After solubilization with 500 μL of lysis buffer (DMSO), formazan was quantified by spectrophotometry with a microplate reader at 570 nm absorbance (ClarioSTAR, BMG LabTech, Champigny-sur-Marne, France). […] All results were calculated from data obtained in at least three independent experiments.
Figure 11 Bcl-xL and z-VAD-fmk inhibited by Fas- or TNFα-induced cell death in MCF7 cells. […] Cell death was assessed by MTT assay. […]
Figure 14 Evaluation of apoptotic biomarkers. […] (B) Cell viability was evaluated in duplicate samples. Data are expressed as percent (%) of untreated cells and are the means of 3 independent experiments (***, p < 0.0001, NS, not significant).

NIH3T3 = experiment: MTT cytotoxicity, 48 h; format: cell-based, murine
Experimental: (§1) The in vitro cytotoxicity of iridium(III) complexes 4a–4g was first evaluated against cancer cell lines PC-3 (human prostate) and T24 (human bladder) and the non-cancerous NIH-3T3 cell line (murine fibroblasts) using colorimetric MTT tests after 48 h of treatment. The dimeric iridium precursor [IrCl(ppy)2]2 was used as reference and the results are summarized in Table S1 (Supplementary Materials) in the supporting information file. […] The complexes were also evaluated for their cytotoxicity towards healthy NIH-3T3 cells, giving access to the selectivity index (SI). […] No linear correlation between lipophilicity and anti-cancer activity was found for the iridium(III) complexes 4a–4g. For the following biological studies, we focused on the C1 series.
(§2) Table S1. Cytotoxic activity of iridium(III) NHC complexes 4a−4g expressed as GI50 (μM) values towards selected cancer and normal cell lines as determined by MTT assay (48 h).a Complex PC-3 T24 NIH3T3 SI (PC-3) SI (T24) […]
(§3) a GI50 values correspond to the concentration of complexes causing 50 % inhibition of cell growth.
(§4) Data were obtained from three independent experiments.
(§5) The cytotoxic effects of the NHC precursors, the imidazolium salts, which represents the potential hydrolysis and/or degradation products of the complexes, have been published before [SI-1, SI-2]. […]

[1] = Octanol–water partition coefficient, shake-flask method; format: physicochemical; conditions: n-octanol/water, UV absorbance 260 nm
Experimental: Lipophilicities of all complexes have been measured by the classical shake-flask method, using UV absorption. The Log p values range from -0.063 to 0.861 in increasing order –0.063 (4a), 0.035 (4d), 0.519 (4f), 0.581 (4c), 0.842 (4b), 0.847 (4e) and 0.861 (4g).
The octanol–water partition coefficients (P) of 4a to 4g were determined using a shake-flask method. Water (100 mL, distilled after milli-Q purification) and n-octanol (100 mL, Sigma-Aldrich, St. Louis, MO, USA, ACS spectrophotometric grade, ≥99%) were shaken together for 24 h to allow saturation of both phases. Stock solutions of the […] compounds (50 μM) were prepared in the aqueous phase and aliquots (1 mL) of each of these stock solutions were then added to an equal volume of the n-octanol phase. The resultant biphasic solutions were mixed for 1 h and then centrifuged (3000× g, 5 min) (Eppendorf Centrifuges 5415R and 5804R) to separate the phases. The concentrations of the complexes in the organic and aqueous phases were then determined using UV absorbance spectroscopy (260 nm). Log P was defined as the logarithm of the ratio of the concentrations of the studied complex in the organic and aqueous phases (Log P = Log {[Ir(org)]/[Ir(aq)]}; values reported are the means of at least two separate determinations).

PC-3 = experiment: MTT cytotoxicity, 48 h; format: cell-based, human; conditions: for GI50: MTT; for SI (PC-3): NIH3T3 vs PC-3
Experimental: as §1, §2, §3, §4, §5

T24 = experiment: MTT cytotoxicity, 48 h; format: cell-based, human; conditions: for GI50: MTT; for SI (T24): NIH3T3 vs T24
Experimental: as §1, §2, §3, §4, §5

[2] = Photophysical measurements (emission, quantum yield, lifetime) in CH2Cl2; format: physicochemical; conditions: CH2Cl2, 298 K, references POPOP and quinine sulfate
Source text: All complexes have been photophysically investigated at standard pressure in CH2Cl2 at 298 K. The absorption spectra of complexes 4a to 4g in CH2Cl2 at 298 K are shown in Figure 7. The strong absorption bands below 300 nm correspond to spin-allowed ^1π→π* electronic ligand-centered (LC) transitions. The structureless bands at 300–360 nm are attributed to ppy-to-ppy ^1π→π* […] charge transfer (LLCT) and Ir-to-ppy metal-to-ligand charge transfer (MLCT) transitions. The lowest-lying bands in the visible region can be assigned to both singlet and triplet MLCT transitions. No significant difference in the absorption spectra of complexes 4a to 4g can be found in the CH2Cl2 solution.
The luminescence spectra of complexes 4a to 4f in CH2Cl2 at 298 K are shown in Figure 8 and their photophysical data are summarized in Table 1.
The relative emission quantum yields (ΦPL) of these complexes in CH2Cl2 at room temperature were measured by using POPOP and quinine sulfate in 1 N H2SO4 as standard references (ΦPL = 97% and ΦPL = 54%, respectively). […] In addition, the excited-state lifetimes of complexes 4a to 4d are in the range of 166.4–190.7 ns, indicating the phosphorescence nature of the emissions.
UV/Vis absorption spectra were recorded at RT on solutions contained in quartz cuvettes (optical pathlength 1 cm, Hellma® (HELLMA, Müllheim, Germany)) with a PerkinElmer® (PerkinElmer, Waltham, MA, USA) UV/VIS/NIR spectrophotometer Lambda 950 and a PerkinElmer® detector UV/VIS/NIR Accessory 2D Detector Module.
Fluorescence and phosphorescence emission spectra were obtained with a HORIBA JOBIN YVON (Bensheim, Germany) fluromax-4 and spectrofluorometer.
Luminescence quantum yields were measured according to the method of Demas and Crosby, on solution samples at RT. The quantum yield is defined as: ΦS=ΦR*As/Ar* ηs/ηr^2^2 where ΦS is the quantum yield of the sample, ΦR is the known quantum yield of the reference standard at the area subtended by the emission band (on a wavelength scale) and η is the refractive index of the solvent used for the preparation of the solution. As (related to the sample) and Ar (related to the reference) must be excitation wavelength. Different standards were selected depending on the spectral region of the interest: POPOP in hexane (Φ = 97%) and QUININNE in water (Φ = 54%).
Fluorescence lifetime measurements were performed by an Edinburgh FLS920 spectrofluorometer equipped with a TCC900 card for data acquisition in time-correlated single-photon counting experiments (0.5 ns time resolution) with a D2 lamp and an LDH-P-C-405 pulsed diode laser. The estimated experimental error was 2 nm on the band maximum (5% on the lifetime, 10% on the fluorescence quantum yield).

T24 bladder cancer cells = experiment: MTT cell viability, 72 h, dark or 458 nm irradiation; format: cell-based, human; conditions: for GI50: 72 h, MTT
Experimental: (§6) For all biology experiments, the compounds were solubilized in DMSO to reach a final fixed concentration equal to 0.1% v/v to avoid cytotoxicity caused by DMSO [89]. The results are normalized to controls (0.1% v/v DMSO). Depending on the cell type, approximatively 1000 to 10,000 cells/cm^2 were seeded in 48-well plates for MTT, ATP and GSH assays and 60 mm Petri dishes for Western blots. Cells were allowed to attach overnight and then incubated for 4 h with the different complexes (in the dark), then irradiated for 10 min, followed by an incubation in the dark up to 72 h.
(§7) Irradiation was conducted using an in-house device: a series of blue light LEDs selected according to the absorption spectra of the compounds at a 458 nm wavelength with an emitted power of 9.6 watts. The absorbed energy, or irradiance, was measured at 458 nm with a Thorlabs Optical Power Meter PM100A at 5 and 10 cm distance between the cell layer and the light source and expressed as mW/cm^2.
(§8) A tetrazolium-based MTT reagent (3-(4,5-dimethylthiazol-2-yl)-2,5-diphenyltetrazolium bromide) was used to determine cell viability, as previously described. After 72 h of treatment at 37 °C and 5% CO2, cells were incubated with 25 μL MTT solution (5 mg/mL; Sigma-Aldrich) for 4 h. After solubilization with 500 μL of lysis buffer (DMSO), formazan was quantified by spectrophotometry with a microplate reader at 570 nm absorbance (ClarioSTAR, BMG LabTech, Champigny-sur-Marne, France). GI50 values corresponding to the concentration that caused 50% inhibition of cell proliferation were calculated from dose–response curves obtained by nonlinear regression analysis. All results were calculated from data obtained in at least three independent experiments.

[3] = system: PC-3 prostate cancer cells; experiment: as above; format: cell-based, human; conditions: for GI50: 72 h, MTT
Experimental: as §6, §7, §8

NIH-3T3 fibroblasts = experiment: as above; format: cell-based, murine; conditions: for GI50: 72 h, MTT
Experimental: as §6, §7, §8

[4] = GI50 non-irradiated / GI50 irradiated

Structure (SMILES)	GI50 (NIH3T3) [µM]	Log P [1]	GI50 (PC-3) [µM]	SI (PC-3) (PC-3)	GI50 (T24) [µM]	SI (T24) (T24)	ΦPL emission quantum yield [2] [%]	also measured
COC(=O)C[C@H](NC(=O)[C@H](C)NC(=O)[C@@H](NC(=O)OCc1ccccc1)C(C)C)C(=O)CF [z-VAD-fmk, reference compound] (Cbz-Val-Ala-Asp(OMe)-CH2F)	–	–	–	–	–	–	–	effect on cell death induced by Fas antibody and TNFα (MCF7/FasR cells): completely abolished cell death
CC(C)C[n+]1ccn2[c]1[Ir-3]13([c]4ccccc4-c4cccc[n+]41)([c]1ccccc1-c1cccc[n+]13)[c]1n(cc[n+]1CC(C)C)CC2.F[P-](F)(F)(F)(F)F [Complex 4f]	4.1	0.519	0.91	4.5	0.91	4.5	0.2	–
c1cc[c]2c(c1)-c1cccc[n+]1[Ir-3]213([Cl+][Ir-3]24([Cl+]1)([c]1ccccc1-c1cccc[n+]12)[c]1ccccc1-c1cccc[n+]14)[c]1ccccc1-c1cccc[n+]13 [[IrCl(ppy)2]2, reference compound]	> 20	–	> 20	> 1	14.8	> 1.4	–	GI50 (T24 bladder cancer cells; 458 nm irradiation 10 min, read-out: GI50 T24 Blue): 22 µM; PI T24 (T24 bladder cancer cells; [4]): 1.2; SI vs NIH, T24 Blue (T24 bladder cancer cells; blue light, GI50 NIH-3T3 / GI50 T24): 0.7; GI50 (T24 bladder cancer cells; dark, read-out: GI50 T24 Dark): 26 µM; SI vs NIH, T24 Dark (T24 bladder cancer cells; dark, GI50 NIH-3T3 / GI50 T24): 1.5; GI50 ([3]; 458 nm irradiation 10 min, read-out: GI50 PC-3 Blue): 14 µM; PI PC-3 [3, 4]: 2.1; SI vs NIH, PC-3 Blue ([3]; blue light, GI50 NIH-3T3 / GI50 PC-3): 1.0; GI50 ([3]; dark, read-out: GI50 PC-3 Dark): 29 µM; SI vs NIH, PC-3 Dark ([3]; dark, GI50 NIH-3T3 / GI50 PC-3): 1.4; GI50 (NIH-3T3 fibroblasts; 458 nm irradiation 10 min, read-out: GI50 NIH-3T3 Blue): 14 µM; PI NIH-3T3 (NIH-3T3 fibroblasts; [4]): 2.9; GI50 (NIH-3T3 fibroblasts; dark, read-out: GI50 NIH-3T3 Dark): 40 µM
F[P-](F)(F)(F)(F)F.c1ccc(C[n+]2ccn3[c]2[Ir-3]24([c]5ccccc5-c5cccc[n+]52)([c]2ccccc2-c2cccc[n+]24)[c]2n(cc[n+]2Cc2ccccc2)CC3)cc1 [Complex 4e]	2.5	0.847	0.25	10.0	0.29	8.6	0.2	–
